The text below walks through data of patent US20220332764A1, “T CELL EPITOPES OF HCMV AND USES OF THEREOF” (EBERHARD KARLS UNIVERSITÄT TÜBINGEN, priority 2019, published 2022).

Assay [1] concerns PBMCs of healthy HCMV-seropositive donors. Put plainly: IFNγ ELISpot after 12 day stimulation (memory T-cell response). The following applies: for % Positive donors (after 12 days of stimulation): IFNγ ELISpot, HLA-matched seropositive donors; for ELISpot response rate (12 d stim.): 12-day amplification with IL-2 in vitro; for Positive donors as tested: positive / tested HLA-matched seropositive donors, positive: >10 spots/well and at least 3-fold negative control. The assay is classed as cell-based, human. The text has this: (§1) PHA was used as positive control.

A further assay concerns HLA. The following applies: Table 2, preferred dominant epitopes.
Assay [2] has as its system CD8+ / CD4+ T cells of donor PBMCs. Put plainly: Intracellular cytokine staining (ICS; IFNγ, TNFα, CD107a). The assay is classed as cell-based, human. The following applies: for Intracellular staining: responding T-cell subset; for Intracellular cytokine staining: responding T-cell subset after peptide stimulation. From the text:
PHA was used as positive control. […] (Cytofix/Cytoperm, BD Biosciences).

In assay [3] the test system is PBMCs of healthy HCMV-seropositive donors. Briefly: ex vivo IFNγ ELISpot without prestimulation. The following applies: for % Positive donors (ex vivo): IFNγ ELISpot ex vivo, donors previously tested positive; for ELISpot response rate (ex vivo): donors positively tested in ELISpots with 12d stimulation. The assay is classed as cell-based, human.
Source text: as §1

The test system of assay [4] is CD8+ T cells of HLA-matched healthy donors. The following applies: for Tetramer-staining: after 12 day amplification.

Read-outs that look alike come from different tables or passages of the source.

In the case of “GLFAVENFL (listed as Human cytomegalovirus) [SEQ ID NO: 4]”, in assay [1], the “% Positive donors (after 12 days of stimulation)” value is listed as 53.9% and the “Positive donors as tested” value is reported as 7/13. The “ELISpot response rate (12 d stim.)” value in assay [1] (Tested HLA A*02:01) was 53.9. Besides, the “actual HLA restriction” value in the assay with HLA was “Class II”. Further, the Intracellular staining result in assay [2] (Tested HLA A*02:01) is “CD4”. Also, in assay [2], the Intracellular cytokine staining result is “CD4”. Also, in assay [3], the “% Positive donors (ex vivo)” value was 0.0%. Also, in assay [3] (Tested HLA A*02:01), the “ELISpot response rate (ex vivo)” value was 0.0.
As to “SPRHLYISL (listed as Human cytomegalovirus) [SEQ ID NO: 29]”, in assay [1], the “% Positive donors (after 12 days of stimulation)” value was 50.0% and the “Positive donors as tested” value is recorded as 11/22. The “ELISpot response rate (12 d stim.)” value in assay [1] (Tested HLA B*07:02) was determined as 50.0. The Tetramer staining result in assay [4] (Tested HLA B*07:02) is “positive”. Further, the Tetramer-staining entry in assay [4] is “Positive”. Also, the Intracellular cytokine staining result in assay [2] is reported as “CD4/CD8”. Further, in assay [3], the “% Positive donors (ex vivo)” value stood at 0.0%. Also, the “ELISpot response rate (ex vivo)” value in assay [3] (Tested HLA B*07:02) stood at 0.0.
For “SPSRDRFVQL (listed as Human cytomegalovirus) [SEQ ID NO: 27]”, in assay [1], the “% Positive donors (after 12 days of stimulation)” value worked out at 66.7% and the “Positive donors as tested” value is given as 14/21. In addition, the “ELISpot response rate (12 d stim.)” value in assay [1] (Tested HLA B*07:02) was 66.7. The Tetramer staining result in assay [4] (Tested HLA B*07:02) is on record as “positive”. The Tetramer-staining entry in assay [4] was “Positive”. Also, the Intracellular cytokine staining result in assay [2] was “Nega-”. The “% Positive donors (ex vivo)” value in assay [3] amounted to 33.3%. For the same sequence, in assay [3] (Tested HLA B*07:02), the “ELISpot response rate (ex vivo)” value was determined as 33.3.
Turning to “TLIVNLVEV (listed as Human cytomegalovirus) [SEQ ID NO: 3]”, in assay [1], the “% Positive donors (after 12 days of stimulation)” value was found to be 55.0% and the “Positive donors as tested” value was 11/20. In assay [1] (Tested HLA A*02:01), the “ELISpot response rate (12 d stim.)” value came out at 55.0. Further, in assay [4] (Tested HLA A*02:01), the Tetramer staining entry is “positive”. Besides, the Tetramer-staining result in assay [4] was “Positive”. Besides, in assay [2] (Tested HLA A*02:01), the Intracellular staining result is given as “CD8”. Besides, the Intracellular cytokine staining entry in assay [2] is reported as “CD8”. The “% Positive donors (ex vivo)” value in assay [3] stood at 25.0%. Besides, the “ELISpot response rate (ex vivo)” value in assay [3] (Tested HLA A*02:01) worked out at 25.0.
As for “TPRVTGGGAM (listed as Human cytomegalovirus) [SEQ ID NO: 25]”, in assay [1], the “% Positive donors (after 12 days of stimulation)” value is listed as 81.6% and the “Positive donors as tested” value is listed as 31/38. Also, the “ELISpot response rate (12 d stim.)” value in assay [1] (Tested HLA B*07:02) is on record as 81.6. Moreover, the Tetramer staining entry in assay [4] (Tested HLA B*07:02) is on record as “positive”. For the same sequence, the Tetramer-staining result in assay [4] is “Positive”. Besides, in assay [2] (Tested HLA B*07:02), the Intracellular staining entry is on record as “CD8”. Moreover, in assay [2], the Intracellular cytokine staining result is reported as “CD8”. For the same sequence, in assay [3], the “% Positive donors (ex vivo)” value stood at 100.0%. In addition, the “ELISpot response rate (ex vivo)” value in assay [3] (Tested HLA B*07:02) is listed as 100.0.
In the case of “YADPFFLKY (listed as Human cytomegalovirus) [SEQ ID NO: 51]”, in assay [1], the “% Positive donors (after 12 days of stimulation)” value turned out to be 100.0% and the “Positive donors as tested” value is 15/15. In assay [1] (Tested HLA A*01:01), the “ELISpot response rate (12 d stim.)” value came to 100.0. Also, the Tetramer staining entry in assay [4] (Tested HLA A*01:01) is recorded as “positive”. In addition, the Tetramer-staining entry in assay [4] is reported as “Positive”. Further, the Intracellular staining result in assay [2] (Tested HLA A*01:01) is on record as “CD8”. Moreover, the Intracellular cytokine staining entry in assay [2] is on record as “CD8”. Also, the “% Positive donors (ex vivo)” value in assay [3] amounted to 90.9%. Further, in assay [3] (Tested HLA A*01:01), the “ELISpot response rate (ex vivo)” value amounted to 90.9.
“YLVRRPMTI (listed as Human cytomegalovirus) [SEQ ID NO: 80]”: in assay [1], the “% Positive donors (after 12 days of stimulation)” value came to 50.0% and the “Positive donors as tested” value is given as 11/22. In addition, the “ELISpot response rate (12 d stim.)” value in assay [1] (Tested HLA B*08:01) worked out at 50.0. For the same sequence, the Tetramer staining result in assay [4] (Tested HLA B*08:01) is “positive”. The Tetramer-staining result in assay [4] was “Positive”. Besides, the Intracellular cytokine staining entry in assay [2] is given as “Nega-”. Moreover, in assay [3], the “% Positive donors (ex vivo)” value was 33.3%. The “ELISpot response rate (ex vivo)” value in assay [3] (Tested HLA B*08:01) is recorded as 33.3.
Regarding “YPRPPGSGL (listed as Human cytomegalovirus) [SEQ ID NO: 24]”, in assay [1], the “% Positive donors (after 12 days of stimulation)” value was 86.4% and the “Positive donors as tested” value was 19/22. Besides, the “ELISpot response rate (12 d stim.)” value in assay [1] (Tested HLA B*07:02) came to 86.4. The Tetramer staining result in assay [4] (Tested HLA B*07:02) is on record as “positive”. In assay [4], the Tetramer-staining result was “Positive”. In addition, the Intracellular cytokine staining entry in assay [2] was “Nega-”. Further, the “% Positive donors (ex vivo)” value in assay [3] amounted to 25.0%. Moreover, the “ELISpot response rate (ex vivo)” value in assay [3] (Tested HLA B*07:02) was 25.0.
